Laboratory results reported in the NIST ThermoML archive (doi:10.1016/j.jct.2016.12.019).
Numbers after ± are expanded uncertainties.

What was measured:
[1] = 100 kPa, Liquid; for viscosity: Capillary tube (Ostwald / Ubbelohde) method; for speed of sound: Frequency=2 MHz, Linear variable-path acoustic interferometer; for mass density: Vibrating tube method
[2] = xn = mol fraction of the nth substance listed; settings: 100 kPa, Liquid, x2 = 0; for viscosity: Capillary tube (Ostwald / Ubbelohde) method; for speed of sound: Frequency=2 MHz, Linear variable-path acoustic interferometer; for mass density: Vibrating tube method

With `CCN(CC)c1ccccc1` [N,N-diethylaniline] the viscosity ([1]; 303.15 K) was 1.711 ± 0.046 mPa·s, the speed of sound ([1]; 303.15 K) was 1432 ± 8.7 m/s and the mass density ([1]; 303.15 K) was 925.8 ± 1.1 kg/m3. It also gave a viscosity ([1]; 308.15 K) of 1.537 ± 0.041 mPa·s, a speed of sound ([1]; 308.15 K) of 1416 ± 8.6 m/s and a mass density ([1]; 308.15 K) of 921.8 ± 1.1 kg/m3. It also gave a viscosity ([1]; 313.15 K) of 1.4 ± 0.038 mPa·s, a speed of sound ([1]; 313.15 K) of 1398 ± 8.5 m/s and a mass density ([1]; 313.15 K) of 917.9 ± 1.1 kg/m3. The viscosity ([1]; 318.15 K) was 1.276 ± 0.034 mPa·s, the speed of sound ([1]; 318.15 K) was 1378 ± 8.4 m/s and the mass density ([1]; 318.15 K) was 913.8 ± 1.1 kg/m3.
Compound `CCCCCCCCCCO` [decan-1-ol] + CCN(CC)c1ccccc1 has a viscosity ([2]; 303.15 K) of 9.751 ± 0.27 mPa·s, a speed of sound ([2]; 303.15 K) of 1363.5 ± 8.3 m/s and a mass density ([2]; 303.15 K) of 822.89 ± 1.1 kg/m3. The viscosity ([2]; 308.15 K) was 8.138 ± 0.22 mPa·s, the speed of sound ([2]; 308.15 K) was 1344.2 ± 8.2 m/s and the mass density ([2]; 308.15 K) was 819.54 ± 1.1 kg/m3. It also gave a viscosity ([2]; 313.15 K) of 6.846 ± 0.19 mPa·s, a speed of sound ([2]; 313.15 K) of 1328.5 ± 8.1 m/s and a mass density ([2]; 313.15 K) of 815.95 ± 1.1 kg/m3. For the same compound, the viscosity ([2]; 318.15 K) was 5.879 ± 0.16 mPa·s, the speed of sound ([2]; 318.15 K) was 1320.5 ± 8 m/s and the mass density ([2]; 318.15 K) was 811.35 ± 1.1 kg/m3.
`CCCCCCCCCO` [nonan-1-ol] showed a viscosity ([1]; 303.15 K) of 7.809 ± 0.21 mPa·s, a speed of sound ([1]; 303.15 K) of 1357 ± 8.3 m/s and a mass density ([1]; 303.15 K) of 821.36 ± 1.1 kg/m3. For the same compound, the viscosity ([1]; 308.15 K) was 6.499 ± 0.18 mPa·s, the speed of sound ([1]; 308.15 K) was 1334 ± 8.2 m/s and the mass density ([1]; 308.15 K) was 817.54 ± 1.1 kg/m3. For the same compound, the viscosity ([1]; 313.15 K) was 5.665 ± 0.15 mPa·s, the speed of sound ([1]; 313.15 K) was 1313 ± 8 m/s and the mass density ([1]; 313.15 K) was 814.05 ± 1.1 kg/m3. The viscosity ([1]; 318.15 K) was 4.676 ± 0.13 mPa·s, the speed of sound ([1]; 318.15 K) was 1293.5 ± 7.9 m/s and the mass density ([1]; 318.15 K) was 808.97 ± 1.1 kg/m3.
In the case of `CCCCCCCCCO` [nonan-1-ol] + CCN(CC)c1ccccc1, the viscosity ([2]; 303.15 K) is reported as 7.809 ± 0.21 mPa·s, the speed of sound ([2]; 303.15 K) is reported as 1357 ± 8.3 m/s and the mass density ([2]; 303.15 K) is reported as 821.36 ± 1.1 kg/m3. The viscosity ([2]; 308.15 K) was 6.499 ± 0.18 mPa·s, the speed of sound ([2]; 308.15 K) was 1334 ± 8.2 m/s and the mass density ([2]; 308.15 K) was 817.54 ± 1.1 kg/m3. For the same compound, the viscosity ([2]; 313.15 K) was 5.665 ± 0.15 mPa·s, the speed of sound ([2]; 313.15 K) was 1313 ± 8 m/s and the mass density ([2]; 313.15 K) was 814.05 ± 1.1 kg/m3. For the same compound, the viscosity ([2]; 318.15 K) was 4.676 ± 0.13 mPa·s, the speed of sound ([2]; 318.15 K) was 1293.5 ± 7.9 m/s and the mass density ([2]; 318.15 K) was 808.97 ± 1.1 kg/m3.
Work on `CCCCCCCCO` [octan-1-ol] + CCN(CC)c1ccccc1 yielded a viscosity ([2]; 303.15 K) of 6.405 ± 0.17 mPa·s, a speed of sound ([2]; 303.15 K) of 1333.5 ± 8.2 m/s and a mass density ([2]; 303.15 K) of 818.25 ± 1.1 kg/m3. It also gave a viscosity ([2]; 308.15 K) of 5.422 ± 0.15 mPa·s, a speed of sound ([2]; 308.15 K) of 1312.5 ± 8 m/s and a mass density ([2]; 308.15 K) of 814.72 ± 1.1 kg/m3. For the same compound, the viscosity ([2]; 313.15 K) was 4.625 ± 0.13 mPa·s, the speed of sound ([2]; 313.15 K) was 1295.4 ± 7.9 m/s and the mass density ([2]; 313.15 K) was 810.07 ± 1.1 kg/m3. It also gave a viscosity ([2]; 318.15 K) of 4.051 ± 0.11 mPa·s, a speed of sound ([2]; 318.15 K) of 1282.5 ± 7.8 m/s and a mass density ([2]; 318.15 K) of 805.52 ± 1.1 kg/m3.
